Assays:
[1] = Intrinsic clearance in human liver microsomes; format: ADME, Microsome; conditions: read-out: CLH
[2] = Intrinsic clearance in rat liver microsomes; format: ADME, Microsome; conditions: read-out: CLH
[3] = Intrinsic clearance in human cytosol after 45 mins by LC/MS analysis; format: ADME
[4] = Intrinsic clearance in rat cytosol after 45 mins by LC/MS analysis; format: ADME
[5] = target: T1, Toll-like receptor 7 (Homo sapiens) (UniProt Q9NYK1); assay: Agonist activity at human TLR7 expressed in human PBMCs assessed as reduction in HCV replicon level after 48 hrs by Bright Glo luciferase reporter gene assay; format: functional
T1 sequence (whole entry): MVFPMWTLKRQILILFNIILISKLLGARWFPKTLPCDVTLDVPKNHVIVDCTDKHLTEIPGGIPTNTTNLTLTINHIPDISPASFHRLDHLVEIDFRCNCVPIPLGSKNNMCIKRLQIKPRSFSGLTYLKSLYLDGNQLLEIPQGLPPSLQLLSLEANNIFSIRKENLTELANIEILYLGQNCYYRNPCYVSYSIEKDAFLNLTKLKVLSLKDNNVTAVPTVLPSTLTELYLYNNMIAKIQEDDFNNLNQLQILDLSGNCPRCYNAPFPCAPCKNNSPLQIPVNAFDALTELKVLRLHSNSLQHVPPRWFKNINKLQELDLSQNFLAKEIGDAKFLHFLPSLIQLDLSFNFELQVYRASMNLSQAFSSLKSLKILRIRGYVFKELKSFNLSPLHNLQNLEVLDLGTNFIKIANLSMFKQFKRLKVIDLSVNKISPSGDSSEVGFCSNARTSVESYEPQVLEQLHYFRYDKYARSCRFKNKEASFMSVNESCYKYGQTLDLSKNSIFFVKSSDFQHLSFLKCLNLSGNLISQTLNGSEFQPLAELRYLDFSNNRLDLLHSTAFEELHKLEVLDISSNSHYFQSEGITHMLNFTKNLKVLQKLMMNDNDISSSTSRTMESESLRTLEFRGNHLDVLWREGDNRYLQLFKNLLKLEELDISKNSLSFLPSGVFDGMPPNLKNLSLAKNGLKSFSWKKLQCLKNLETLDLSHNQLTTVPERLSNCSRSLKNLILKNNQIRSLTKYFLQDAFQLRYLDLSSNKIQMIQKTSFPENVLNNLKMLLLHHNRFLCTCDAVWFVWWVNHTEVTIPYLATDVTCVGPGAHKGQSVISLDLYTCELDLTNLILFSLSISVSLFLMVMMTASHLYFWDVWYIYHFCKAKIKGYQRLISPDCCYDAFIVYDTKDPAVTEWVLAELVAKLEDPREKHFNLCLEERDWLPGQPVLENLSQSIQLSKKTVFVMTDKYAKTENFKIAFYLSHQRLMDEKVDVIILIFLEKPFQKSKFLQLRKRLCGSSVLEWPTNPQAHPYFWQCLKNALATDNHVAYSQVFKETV

Row | SMILES | microsomal CLint [1] [µL/min/mg] | microsomal CLint [2] [µL/min/mg] | microsomal CLint [3] [µL/min/mg] | microsomal CLint [4] [µL/min/mg] | Activity [5] [nM]
1 | Nc1nc(C(F)(F)F)cc2c1[nH]c(=O)n2Cc1ccc(NCC2CC2)nc1 | – | – | – | – | 122
2 | Nc1nc(C(F)(F)F)cc2c1[nH]c(=O)n2Cc1ccc(C(F)(F)F)nc1 | – | – | – | – | 75
3 | Nc1nc(C(F)(F)F)cc2c1[nH]c(=O)n2Cc1ccc(N2CCOCC2)nc1 | – | – | – | – | 32
4 | CCc1coc(-c2cc3c([nH]c(=O)n3Cc3ccc(C)nc3)c(N)n2)n1 | – | – | – | – | 116

Now from value to molecule:

Row | microsomal CLint [1] [µL/min/mg] | microsomal CLint [2] [µL/min/mg] | microsomal CLint [3] [µL/min/mg] | microsomal CLint [4] [µL/min/mg] | Activity [5] [nM] | SMILES
5 | < 8 | < 10 | < 1 | < 1 | – | Cc1nc(Cn2c(=O)[nH]c3c(N)nc(C(F)(F)F)cc32)co1
6 | – | – | – | – | 43 | Nc1ccc(Cn2c(=O)[nH]c3c(N)nc(C(F)(F)F)cc32)cn1
7 | < 8 | < 9 | < 1 | < 1 | – | Cc1cc(Cn2c(=O)[nH]c3c(N)nc(C(F)(F)F)cc32)no1
8 | < 7 | < 10 | < 1 | < 1 | – | Cc1nc(Cn2c(=O)[nH]c3c(N)nc(C(F)(F)F)cc32)cs1
9 | – | – | – | – | 74 | COc1ccc(Cn2c(=O)[nH]c3c(N)nc(C(F)(F)F)cc32)cn1

— ChEMBL document CHEMBL2021836, “Medicinal chemistry approaches to avoid aldehyde oxidase metabolism” (Bioorg Med Chem Lett, 2012)
